Where a SMILES comes first, the peptide text is derived from it. The star is where a group is joined. Succinyl(4-O-cholesteryl) = CC(C)CCC[C@@H](C)[C@H]1CC[C@H]2[C@@H]3CC=C4C[C@@H](OC(=O)CCC(=O)*)CC[C@]4(C)[C@H]3CC[C@]12C
Tests used:
[1] = tested on: C26 subcutaneously implanted tumor; test: Subcutaneously implanted tumor model of C26 mouse colon cancer; type: in vivo
Protocol: In order to further characterize the application potential of DP7-C micelles in tumor therapy, we established a subcutaneously implanted tumor model of C26 mouse colon cancer and used DP7-C to transmit anti-VEGF siRNA therapeutic genes for therapeutic research. • (1) On day 0, female BALB/c mice aged 6-8 weeks are subcutaneously inoculated with 0.1 mL of cell suspension (containing about 1.5×10^6 C26 cells). • (2) On day 8, when the tumor is palpable, mice are randomly divided into 4 groups, 8 mice for each group, and are labeled. • (3) Four groups of mice are intratumorally injected with 10 doses of normal saline (blank control group), blank DP7-C micelle (25 μg), DP7-C/no-sense control siRNA complex (25 μg/5 μg) or DP7-C/VEGF siRNA complex (25 μg/5 μg) respectively. • (4) On day 20, when the mice in the control group are already very weak, all the mice are killed by cervical dislocation; the tumor tissues in the abdominal cavity as well as the heart, liver, spleen, lung and kidney tissues are immediately collected, weighed and analyzed. The ascites of each group of mice is also collected and measured, and CD31 immunohistochemical staining is performed on tumor tissues of each experimental group. The collected heart, liver, spleen, lung and kidney tissues are analyzed by HE staining.

[2] = tested on: 293T human embryonic kidney cell line; type: cell-based; settings: 293T cells, 24 h, CCK-8
Protocol: Cytotoxicity of cations is one of the important factors that restrict the application of siRNA transfection. The toxicity of DP7-C micelles to 293T human embryonic kidney cell line, a normal cell, is detected through cell survival experiments. 293T cells are laid in a 96-well plate at a density of 3×10^3 cells per well, and 100 μL of DMEM/20% FBS medium is added to each well and incubated for 24 h. In the experiment, three groups are set up, i.e. DP7-C, PEI25K and Lipofectamin2000; and each group had 10 concentration gradients of 0, 12.5, 18.75, 25, 37, 50, 75, 100, 150 and 200 μg/mL respectively. The survival of the cells was detected by the CCK-8 method. After 24 h of dosing, 10 μL of CCK-8 solution is added to each well and incubated at 37° C. for 2 h. The absorption value of each well is detected at the wavelength of 630 nm and 450 nm by a microplate reader. The standard curve is drawn and IC50 is calculated, and the average value of 6 groups of parallel experiments is taken as the final result.

[3] = tested on: Staphylococcus aureus 33591; test: Intra-abdominally infected mouse model; type: in vivo; settings: intravenous administration
Protocol: The anti-infection activity of DP7-C is determined by the intra-abdominally infected models. […]
The experimental steps are as follows: • (1) Activate Staphylococcus aureus 33591 with MHB the day before the experiment, wash the activated strains twice with normal saline on the day of the experiment, and determine the concentration of bacterial liquid for later use. • (2) To establish an abdominally infected mouse model, intraperitoneally inject the bacterial solution of 1.5×10^8 cfu/0.5 mL into each mouse. • (3) Intravenously inject the drug by group after one hour of infection, 0.1 mL/mouse. • (4) 24 h later, intraperitoneally inject 5 mL of normal saline into the mouse, gently massage the abdomen, kill the mouse and disinfect with 75% alcohol. After 5 min, scissor the abdominal cavity epithelium, make a small opening in the abdominal cavity, draw ascites as much as possible from the opening with a 1 ml syringe, and then transfer to a sterile EP tube for mixing. • (5) Dilute with normal saline at a dilution of, for example, 10×, 100×, 1000× and 10000×; take three bacterial solutions with suitable concentrations, 20 μL each, coat the MHA plate and incubate in a bacteria incubator overnight. • (6) Select a plate with 20-200 colonies and convert and calculate the amount of bacteria per milliliter in 5 milliliters of ascites.

Structure (SMILES): CC[C@H](C)[C@H](NC(=O)[C@H](CCCNC(=N)N)NC(=O)[C@H](Cc1c[nH]c2ccccc12)NC(=O)[C@H](CCC(N)=O)NC(=O)[C@@H](NC(=O)CCC(=O)O[C@H]1CC[C@@]2(C)C(=CC[C@H]3[C@@H]4CC[C@H]([C@H](C)CCCC(C)C)[C@@]4(C)CC[C@@H]32)C1)C(C)C)C(=O)N[C@@H](CCCNC(=N)N)C(=O)N[C@H](C(=O)N[C@@H](C)C(=O)N[C@H](C(=O)N[C@H](C(=O)N[C@@H](CCCNC(=N)N)C(=O)N[C@@H](CCCCN)C(N)=O)[C@@H](C)CC)C(C)C)C(C)C [DP7-C, Chol-suc-VQWRIRVAVIRK-NH2] ({Succinyl(4-O-cholesteryl)}-VQWRIRVAVIRK-NH2)
- HE staining of major organ tissues ([1]; heart, liver, spleen, lung, kidney): no significant pathological changes
- average tumor weight (unit mm^3) ([1]; intratumoral injection, 10 doses): 357.64±30.56 mm^3
- IC50 [2]: exceeding 200 μg/mL
- average colony forming unit (CFU) of Staphylococcus aureus ([3]; DP7-C 1 mg/kg, VAN 20 mg/kg, vs NS group, p<0.01): significantly lower than those in NS group
- antibacterial effect compared with positive drug group ([3]; no statistical difference): basically the same as that of the positive drug group
